Results: patent US20260284044A1, “PHARMACEUTICAL COMPOSITIONS OF VARENICLINE AND PROCESS THEREOF” (TENSHI KAIZEN L PRIVATE LIMITED, priority 2023, published 2026)

How the values were obtained:
[1] = FDA, cited from earlier work
[2] = N-nitroso varenicline content of API and tablets, initial and on stability storage; type: physicochemical

Row | Molecule | Intake limit considered reasonably safe for humans ([1]; based on lifetime exposure) | Interim acceptable intake limit ([1]; interim limit for distribution in the US) | Results (nitroso varenicline) ([2]; Batch API (EL-01-A179-2001003), limit NMT 18.5 ppm) | Initial (ppm) (N-nitroso varenicline) ([2]; Orally disintegrating tablets 1 mg and API, initial data)
1 | O=NN1CC2CC(C1)c1cc3nccnc3cc12 [N-nitroso-varenicline] | 37 nanograms per day | ≤ 185 ng per day |  | 
2 | (2R,3R)-2,3-dihydroxybutanedioic acid;5,8,14-triazatetracyclo [10.3.1.02,11.04,9]hexadeca-2,4,6,8,10-pentaene [Varenicline API] |  |  | Less than 2 ppm | 1.73 ppm
